# Source: patent US10597388B2, “Pyridazinone herbicides” (FMC CORPORATION, priority 2014, dated 2020)
# How the values were obtained:
# Experiment in all cases: Test D controlled growth environment herbicide test, pre- and postemergence
# Type in all cases: in vivo
# [1] = system: barley, winter (winter barley, Hordeum vulgare)
# Method in brief: (§1)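 Rating is visual, 0–100 scale (100 = complete control), made against untreated plants 14–21 d after treatment in controlled growth conditions. Postemergence sprays went onto 1- to 4-leaf plants in peat medium; preemergence sprays onto silt loam after sowing; formulation included a surfactant.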
# [2] = system: blackgrass (Alopecurus myosuroides)
# Method in brief: as §1
# [3] = system: bluegrass (annual bluegrass, Poa annua)
# Method in brief: as §1
# [4] = system: bromegrass, downy (downy bromegrass, Bromus tectorum)
# Method in brief: as §1
# [5] = system: chamomile (scentless chamomile, Matricaria inodora)
# Method in brief: as §1
# [6] = system: chickweed (common chickweed, Stellaria media)
# Method in brief: as §1
# [7] = system: field violet (Viola arvensis)
# Method in brief: as §1
# [8] = system: foxtail, green (green foxtail, Setaria viridis)
# Method in brief: as §1
# [9] = system: galium (catchweed bedstraw, Galium aparine)
# Method in brief: as §1
# kochia (Kochia scoparia) = system: kochia (Kochia scoparia)
# Method in brief: as §1
# [10] = system: lambsquarters (Chenopodium album)
# Method in brief: as §1
# [11] = system: pigweed (Amaranthus retroflexus)
# Method in brief: as §1
# [12] = system: wheat, winter (winter wheat, Triticum aestivum)
# Method in brief: as §1
# [13] = Postemergence, 31 g ai/ha, scale 0 to 100 (0 no effect, 100 complete control)
# [14] = Postemergence, 125 g ai/ha, visual rating on scale 0 (no effect) to 100 (complete control), 14 to 21 d
# [15] = Postemergence, 250 g ai/ha, scale 0 to 100 (0 no effect, 100 complete control)
# [16] = Preemergence, 62 g ai/ha, scale 0 to 100 (0 no effect, 100 complete control)
# [17] = Preemergence, 125 g ai/ha, scale 0 to 100 (0 no effect, 100 complete control)
# [18] = Preemergence, 250 g ai/ha, scale 0 to 100, 0 no effect, 100 complete control
# [19] = postemergence, 62 g ai/ha, scale 0 to 100, 0 no effect, 100 complete control
smiles,measurement,setting,value
CC(=O)Oc1c(C)nn(C)c(=O)c1-c1c(C)sc2ccc(Cl)cc12 [Compound 108],"Barley, Winter plant response rating",[1]; [13],5
same,"Plant response rating, Barley, Winter",[1]; [14],10
same,"Plant response rating, Barley, Winter",[1]; [15],15
same,"Plant response rating (scale of 0 to 100), Barley, Winter","[1]; Preemergence, 31 g ai/ha",0
same,"Plant response rating, Barley, Winter",[1]; [16],0
same,"Plant response rating, Barley, Winter",[1]; [17],10
same,"Plant response rating, Barley, Winter",[1]; [18],20
same,"Plant response rating, Barley, Winter",[1]; [19],5
same,Blackgrass plant response rating,[2]; [13],20
same,"Plant response rating, Blackgrass",[2]; [14],65
same,"Plant response rating, Blackgrass",[2]; [15],75
same,"Plant response rating (scale of 0 to 100), Blackgrass","[2]; Preemergence, 31 g ai/ha",15
same,"Plant response rating, Blackgrass",[2]; [16],35
same,"Plant response rating, Blackgrass",[2]; [17],50
same,"Plant response rating, Blackgrass",[2]; [18],80
same,"Plant response rating, Blackgrass",[2]; [19],45
same,Bluegrass plant response rating,[3]; [13],5
same,"Plant response rating, Bluegrass",[3]; [14],25
same,"Plant response rating, Bluegrass",[3]; [15],35
same,"Plant response rating (scale of 0 to 100), Bluegrass","[3]; Preemergence, 31 g ai/ha",10
same,"Plant response rating, Bluegrass",[3]; [16],15
same,"Plant response rating, Bluegrass",[3]; [17],35
same,"Plant response rating, Bluegrass",[3]; [18],75
same,"Plant response rating, Bluegrass",[3]; [19],10
same,"Bromegrass, Downy plant response rating",[4]; [13],25
same,"Plant response rating, Bromegrass, Downy",[4]; [14],40
same,"Plant response rating, Bromegrass, Downy",[4]; [15],65
same,"Plant response rating (scale of 0 to 100), Bromegrass, Downy","[4]; Preemergence, 31 g ai/ha",25
same,"Plant response rating, Bromegrass, Downy",[4]; [16],25
same,"Plant response rating, Bromegrass, Downy",[4]; [17],70
same,"Plant response rating, Bromegrass, Downy",[4]; [18],75
same,"Plant response rating, Bromegrass, Downy",[4]; [19],30
same,Chamomile plant response rating,[5]; [13],75
same,"Plant response rating, Chamomile",[5]; [14],95
same,"Plant response rating, Chamomile",[5]; [15],100
same,"Plant response rating, Chamomile",[5]; [19],85
same,Chickweed plant response rating,[6]; [13],90
same,"Plant response rating, Chickweed",[6]; [14],100
same,"Plant response rating, Chickweed",[6]; [15],100
same,"Plant response rating (scale of 0 to 100), Chickweed","[6]; Preemergence, 31 g ai/ha",100
same,"Plant response rating (scale of 0 to 100), Chickweed","[6]; Preemergence, 62 g ai/ha",100
same,"Plant response rating, Chickweed",[6]; [17],100
same,"Plant response rating, Chickweed",[6]; [18],100
same,"Plant response rating, Chickweed",[6]; [19],100
same,Field Violet plant response rating,[7]; [13],90
same,"Plant response rating, Field Violet",[7]; [14],100
same,"Plant response rating, Field Violet",[7]; [15],100
same,"Plant response rating (scale of 0 to 100), Field Violet","[7]; Preemergence, 31 g ai/ha",90
same,"Plant response rating (scale of 0 to 100), Field Violet","[7]; Preemergence, 62 g ai/ha",100
same,"Plant response rating, Field Violet",[7]; [17],100
same,"Plant response rating, Field Violet",[7]; [18],100
same,"Plant response rating, Field Violet",[7]; [19],95
same,"Foxtail, Green plant response rating",[8]; [13],65
same,"Plant response rating, Foxtail, Green",[8]; [14],75
same,"Plant response rating, Foxtail, Green",[8]; [15],95
same,"Plant response rating (scale of 0 to 100), Foxtail, Green","[8]; Preemergence, 31 g ai/ha",30
same,"Plant response rating (scale of 0 to 100), Foxtail, Green","[8]; Preemergence, 62 g ai/ha",90
same,"Plant response rating, Foxtail, Green",[8]; [17],100
same,"Plant response rating, Foxtail, Green",[8]; [18],100
same,"Plant response rating, Foxtail, Green",[8]; [19],70
same,Galium plant response rating,[9]; [13],90
same,"Plant response rating, Galium",[9]; [14],100
same,"Plant response rating, Galium",[9]; [15],100
same,"Plant response rating (scale of 0 to 100), Galium","[9]; Preemergence, 31 g ai/ha",60
same,"Plant response rating (scale of 0 to 100), Galium","[9]; Preemergence, 62 g ai/ha",70
same,"Plant response rating, Galium",[9]; [17],95
same,"Plant response rating, Galium",[9]; [18],100
same,"Plant response rating, Galium",[9]; [19],95
same,Kochia plant response rating,kochia (Kochia scoparia); [13],90
same,"Plant response rating, Kochia",kochia (Kochia scoparia); [14],100
same,"Plant response rating, Kochia",kochia (Kochia scoparia); [15],100
same,"Plant response rating (scale of 0 to 100), Kochia","kochia (Kochia scoparia); Preemergence, 31 g ai/ha",60
same,"Plant response rating (scale of 0 to 100), Kochia","kochia (Kochia scoparia); Preemergence, 62 g ai/ha",95
same,"Plant response rating, Kochia",kochia (Kochia scoparia); [17],80
same,"Plant response rating, Kochia",kochia (Kochia scoparia); [18],100
same,"Plant response rating, Kochia",kochia (Kochia scoparia); [19],100
same,Lambsquarters plant response rating,[10]; [13],90
same,"Plant response rating, Lambsquarters",[10]; [14],100
same,"Plant response rating, Lambsquarters",[10]; [15],100
same,"Plant response rating (scale of 0 to 100), Lambsquarters","[10]; Preemergence, 31 g ai/ha",100
same,"Plant response rating (scale of 0 to 100), Lambsquarters","[10]; Preemergence, 62 g ai/ha",100
same,"Plant response rating, Lambsquarters",[10]; [17],100
same,"Plant response rating, Lambsquarters",[10]; [18],100
same,"Plant response rating, Lambsquarters",[10]; [19],95
same,Pigweed plant response rating,[11]; [13],95
same,"Plant response rating, Pigweed",[11]; [14],100
same,"Plant response rating, Pigweed",[11]; [15],100
same,"Plant response rating (scale of 0 to 100), Pigweed","[11]; Preemergence, 31 g ai/ha",100
same,"Plant response rating (scale of 0 to 100), Pigweed","[11]; Preemergence, 62 g ai/ha",100
same,"Plant response rating, Pigweed",[11]; [17],100
same,"Plant response rating, Pigweed",[11]; [18],100
same,"Plant response rating, Pigweed",[11]; [19],100
same,"Wheat, Winter plant response rating",[12]; [13],10
same,"Plant response rating, Wheat, Winter",[12]; [14],20
same,"Plant response rating, Wheat, Winter",[12]; [15],20
same,"Plant response rating (scale of 0 to 100), Wheat, Winter","[12]; Preemergence, 31 g ai/ha",0
same,"Plant response rating (scale of 0 to 100), Wheat, Winter","[12]; Preemergence, 62 g ai/ha",0
same,"Plant response rating, Wheat, Winter",[12]; [17],10
same,"Plant response rating, Wheat, Winter",[12]; [18],30
same,"Plant response rating, Wheat, Winter",[12]; [19],15
